Assay results taken from ChEMBL document CHEMBL5705893, “Targeting the mitotic checkpoint for cancer therapy with NMS-P715, an inhibitor of MPS1 kinase” (Cancer Res, 2010).
Activity calls are given as the source filed them. The calls are words filed in the database; no cut-off is given here.

Experiments:
Activated CDC42 kinase 1 = Activated CDC42 kinase 1 (Homo sapiens, UniProt Q07912); test: Inhibition of recombinant ACK1 (unknown origin)
[1] = biological target: CDC7/DBF4 (Cell division cycle 7-related protein kinase/Activator of S phase kinase) (Homo sapiens, UniProt O00311); test: Inhibition of recombinant CDC7/DBF4 (unknown origin); type: protein-complex assay
CDC7/DBF4 (Cell division cycle 7-related protein kinase/Activator of S phase kinase), sequence (Q9UBU7 whole entry): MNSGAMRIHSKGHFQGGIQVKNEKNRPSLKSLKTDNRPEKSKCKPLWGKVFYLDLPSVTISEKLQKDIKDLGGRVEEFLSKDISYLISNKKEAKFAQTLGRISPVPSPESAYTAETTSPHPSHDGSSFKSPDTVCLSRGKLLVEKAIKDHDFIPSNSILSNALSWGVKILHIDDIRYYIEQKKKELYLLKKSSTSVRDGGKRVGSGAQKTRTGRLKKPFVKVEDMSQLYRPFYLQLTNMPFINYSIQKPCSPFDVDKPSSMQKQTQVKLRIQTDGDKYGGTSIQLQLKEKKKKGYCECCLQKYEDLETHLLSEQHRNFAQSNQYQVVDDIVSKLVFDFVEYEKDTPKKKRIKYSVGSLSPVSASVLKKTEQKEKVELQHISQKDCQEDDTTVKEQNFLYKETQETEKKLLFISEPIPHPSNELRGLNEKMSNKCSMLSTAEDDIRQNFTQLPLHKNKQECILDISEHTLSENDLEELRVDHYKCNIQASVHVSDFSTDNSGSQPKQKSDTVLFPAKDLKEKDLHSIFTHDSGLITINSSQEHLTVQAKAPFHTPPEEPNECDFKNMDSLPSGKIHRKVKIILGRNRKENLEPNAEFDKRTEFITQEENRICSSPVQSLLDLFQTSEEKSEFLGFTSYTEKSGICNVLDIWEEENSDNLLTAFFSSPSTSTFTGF
CDC7/DBF4 (Cell division cycle 7-related protein kinase/Activator of S phase kinase), sequence (O00311 whole entry): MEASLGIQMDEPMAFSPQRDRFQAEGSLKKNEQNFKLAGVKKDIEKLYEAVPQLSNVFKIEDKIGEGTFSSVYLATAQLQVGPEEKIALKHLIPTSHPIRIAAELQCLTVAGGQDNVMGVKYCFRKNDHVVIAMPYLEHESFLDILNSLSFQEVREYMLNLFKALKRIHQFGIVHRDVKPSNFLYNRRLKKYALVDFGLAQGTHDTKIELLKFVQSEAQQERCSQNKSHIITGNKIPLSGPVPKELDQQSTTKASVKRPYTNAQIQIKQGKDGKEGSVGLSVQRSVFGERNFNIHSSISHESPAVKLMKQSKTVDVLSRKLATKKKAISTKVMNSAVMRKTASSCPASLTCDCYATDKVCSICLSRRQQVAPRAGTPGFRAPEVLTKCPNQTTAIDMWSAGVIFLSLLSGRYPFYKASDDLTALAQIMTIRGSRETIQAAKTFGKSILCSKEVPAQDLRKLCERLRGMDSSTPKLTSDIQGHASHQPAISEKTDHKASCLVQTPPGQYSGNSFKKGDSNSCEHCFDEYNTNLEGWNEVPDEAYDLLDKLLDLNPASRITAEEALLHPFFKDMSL

[2] = biological target: Fibroblast growth factor receptor 1 (Homo sapiens, UniProt P11362); test: Inhibition of recombinant FGFR1 (unknown origin)
Fibroblast growth factor receptor 1, sequence (P11362 whole entry): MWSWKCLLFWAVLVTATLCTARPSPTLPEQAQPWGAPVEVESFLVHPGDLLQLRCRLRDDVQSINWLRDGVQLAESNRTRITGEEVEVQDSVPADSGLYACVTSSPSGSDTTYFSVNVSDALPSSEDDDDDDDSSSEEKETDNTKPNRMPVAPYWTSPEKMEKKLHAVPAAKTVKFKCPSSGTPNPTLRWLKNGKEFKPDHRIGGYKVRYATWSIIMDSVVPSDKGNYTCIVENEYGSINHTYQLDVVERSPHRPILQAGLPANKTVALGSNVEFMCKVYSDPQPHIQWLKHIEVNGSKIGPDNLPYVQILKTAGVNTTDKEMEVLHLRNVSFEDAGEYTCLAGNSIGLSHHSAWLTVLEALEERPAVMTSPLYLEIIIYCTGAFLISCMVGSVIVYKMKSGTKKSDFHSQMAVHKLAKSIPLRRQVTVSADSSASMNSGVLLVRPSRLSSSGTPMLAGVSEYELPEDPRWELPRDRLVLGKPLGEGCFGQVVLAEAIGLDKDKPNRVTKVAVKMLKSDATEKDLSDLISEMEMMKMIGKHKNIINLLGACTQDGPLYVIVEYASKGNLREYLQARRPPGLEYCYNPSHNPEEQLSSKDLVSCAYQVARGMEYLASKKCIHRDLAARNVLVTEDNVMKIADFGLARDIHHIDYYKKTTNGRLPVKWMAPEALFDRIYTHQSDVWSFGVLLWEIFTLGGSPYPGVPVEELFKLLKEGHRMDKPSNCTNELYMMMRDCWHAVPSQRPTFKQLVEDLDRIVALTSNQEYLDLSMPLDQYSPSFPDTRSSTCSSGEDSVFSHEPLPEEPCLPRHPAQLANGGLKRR

[3] = biological target: Receptor-type tyrosine-protein kinase FLT3 (Homo sapiens, UniProt P36888); test: Inhibition of recombinant FLT3 (unknown origin)
[4] = biological target: Serine/threonine-protein kinase haspin (Homo sapiens, UniProt Q8TF76); test: Inhibition of recombinant Haspin (unknown origin)
Serine/threonine-protein kinase haspin, sequence (Q8TF76 whole entry): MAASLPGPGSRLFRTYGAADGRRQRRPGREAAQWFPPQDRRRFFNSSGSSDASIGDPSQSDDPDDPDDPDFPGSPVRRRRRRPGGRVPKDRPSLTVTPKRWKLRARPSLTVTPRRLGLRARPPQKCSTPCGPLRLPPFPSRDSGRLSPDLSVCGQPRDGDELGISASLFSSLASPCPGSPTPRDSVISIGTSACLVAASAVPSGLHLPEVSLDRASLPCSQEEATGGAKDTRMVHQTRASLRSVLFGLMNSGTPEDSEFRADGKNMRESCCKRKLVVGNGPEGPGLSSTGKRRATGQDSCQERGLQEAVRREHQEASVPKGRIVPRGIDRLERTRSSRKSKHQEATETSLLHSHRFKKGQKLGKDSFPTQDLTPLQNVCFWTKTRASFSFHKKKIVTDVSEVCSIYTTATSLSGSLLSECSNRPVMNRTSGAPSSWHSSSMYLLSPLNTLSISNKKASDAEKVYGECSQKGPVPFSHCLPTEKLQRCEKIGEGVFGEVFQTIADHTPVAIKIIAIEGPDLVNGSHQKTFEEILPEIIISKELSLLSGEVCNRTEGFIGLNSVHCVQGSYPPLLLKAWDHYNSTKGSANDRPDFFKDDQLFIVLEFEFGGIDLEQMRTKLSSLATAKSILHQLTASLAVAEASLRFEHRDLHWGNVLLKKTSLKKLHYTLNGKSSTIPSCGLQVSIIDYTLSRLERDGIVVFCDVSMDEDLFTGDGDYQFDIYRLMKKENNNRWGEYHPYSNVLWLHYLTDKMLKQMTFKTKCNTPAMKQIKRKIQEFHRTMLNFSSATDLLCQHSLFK

[5] = biological target: Serine/threonine-protein kinase pim-2 (Homo sapiens, UniProt Q9P1W9); test: Inhibition of recombinant PIM2 (unknown origin)
Serine/threonine-protein kinase pim-2, sequence (Q9P1W9 whole entry): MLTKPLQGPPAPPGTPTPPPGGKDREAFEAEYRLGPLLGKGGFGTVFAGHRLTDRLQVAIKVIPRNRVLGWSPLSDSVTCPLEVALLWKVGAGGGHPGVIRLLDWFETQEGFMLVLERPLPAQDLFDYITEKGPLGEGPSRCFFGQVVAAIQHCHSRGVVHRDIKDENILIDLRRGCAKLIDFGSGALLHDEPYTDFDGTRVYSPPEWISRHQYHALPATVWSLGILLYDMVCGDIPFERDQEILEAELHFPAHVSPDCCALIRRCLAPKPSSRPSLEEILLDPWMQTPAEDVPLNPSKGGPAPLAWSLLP

[6] = biological target: Non-receptor tyrosine-protein kinase TYK2 (Homo sapiens, UniProt P29597); test: Inhibition of recombinant TYK 2 (unknown origin)
Non-receptor tyrosine-protein kinase TYK2, sequence (P29597 whole entry): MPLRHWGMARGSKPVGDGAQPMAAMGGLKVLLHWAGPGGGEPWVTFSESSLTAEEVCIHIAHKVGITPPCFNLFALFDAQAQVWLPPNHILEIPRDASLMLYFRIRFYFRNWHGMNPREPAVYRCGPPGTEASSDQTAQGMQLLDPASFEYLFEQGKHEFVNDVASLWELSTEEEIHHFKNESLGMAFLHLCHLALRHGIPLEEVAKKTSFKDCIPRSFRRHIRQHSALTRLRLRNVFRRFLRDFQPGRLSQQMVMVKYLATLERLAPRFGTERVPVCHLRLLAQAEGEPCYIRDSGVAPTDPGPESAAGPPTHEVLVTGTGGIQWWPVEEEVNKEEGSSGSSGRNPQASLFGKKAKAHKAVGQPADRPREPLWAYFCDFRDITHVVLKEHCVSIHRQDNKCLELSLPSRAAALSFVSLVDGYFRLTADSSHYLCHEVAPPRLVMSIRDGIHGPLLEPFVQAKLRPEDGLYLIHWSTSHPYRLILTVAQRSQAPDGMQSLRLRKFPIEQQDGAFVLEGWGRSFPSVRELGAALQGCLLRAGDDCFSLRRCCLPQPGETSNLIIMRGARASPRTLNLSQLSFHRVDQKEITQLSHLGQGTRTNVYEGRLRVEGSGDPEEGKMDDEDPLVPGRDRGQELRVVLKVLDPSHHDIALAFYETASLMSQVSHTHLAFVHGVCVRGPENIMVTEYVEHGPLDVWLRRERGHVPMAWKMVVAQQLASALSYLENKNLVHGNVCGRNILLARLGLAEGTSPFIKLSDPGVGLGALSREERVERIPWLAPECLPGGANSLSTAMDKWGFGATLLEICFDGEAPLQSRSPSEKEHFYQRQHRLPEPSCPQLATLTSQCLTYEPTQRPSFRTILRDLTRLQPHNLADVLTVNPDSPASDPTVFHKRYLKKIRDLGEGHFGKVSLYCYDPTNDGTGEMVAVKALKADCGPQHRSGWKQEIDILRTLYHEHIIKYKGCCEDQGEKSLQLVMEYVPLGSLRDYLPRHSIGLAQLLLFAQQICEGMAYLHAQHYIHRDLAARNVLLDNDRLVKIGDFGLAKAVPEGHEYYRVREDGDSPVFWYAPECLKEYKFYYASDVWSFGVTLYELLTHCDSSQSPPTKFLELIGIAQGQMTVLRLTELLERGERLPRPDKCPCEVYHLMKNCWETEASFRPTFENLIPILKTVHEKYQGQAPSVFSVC

MCF7 = test: Antiproliferative activity against human MCF7 cells assessed as inhibition of cell growth incubated for 72 hrs by celltiter-glo assay; type: functional, cell-based; settings: MCF7, 72 h
COLO 205 = test: Antiproliferative activity against human COLO 205 cells assessed as inhibition of cell growth incubated for 72 hrs by celltiter-glo assay; type: functional, cell-based; settings: COLO 205, 72 h
LS180 = test: Antiproliferative activity against human LS180 cells assessed as inhibition of cell growth incubated for 72 hrs by celltiter-glo assay; type: functional, cell-based; settings: LS180, 72 h
SNB-19 = test: Antiproliferative activity against human SNB-19 cells assessed as inhibition of cell growth incubated for 72 hrs by celltiter-glo assay; type: functional, cell-based; settings: SNB-19, 72 h
CCRF-CEM = test: Antiproliferative activity against human CCRF-CEM cells assessed as inhibition of cell growth incubated for 72 hrs by celltiter-glo assay; type: functional, cell-based
K562 = test: Antiproliferative activity against human K562 cells assessed as inhibition of cell growth incubated for 72 hrs by celltiter-glo assay; type: functional, cell-based; settings: K562, 72 h
SET-2 = test: Antiproliferative activity against human SET2 cells assessed as inhibition of cell growth incubated for 72 hrs by celltiter-glo assay; type: functional, cell-based; settings: SET-2, 72 h
NCI-H1770 = test: Antiproliferative activity against human NCI-H1770 cells assessed as inhibition of cell growth incubated for 72 hrs by celltiter-glo assay; type: functional, cell-based; settings: NCI-H1770, 72 h
NCI-H2228 = test: Antiproliferative activity against human NCI-H2228 cells assessed as inhibition of cell growth incubated for 72 hrs by celltiter-glo assay; type: functional, cell-based; settings: NCI-H2228, 72 h
EKVX = test: Antiproliferative activity against human EKVX cells assessed as inhibition of cell growth incubated for 72 hrs by celltiter-glo assay; type: functional, cell-based
MV4-11 = test: Antiproliferative activity against human MV4-11 cells assessed as inhibition of cell growth incubated for 72 hrs by celltiter-glo assay; type: functional, cell-based; settings: MV4-11, 72 h
SUD4 = test: Antiproliferative activity against human SU-DHL-4 cells assessed as inhibition of cell growth incubated for 72 hrs by celltiter-glo assay; type: functional, cell-based; settings: SU-DHL-4, 72 h
SU-DHL-1 = test: Antiproliferative activity against human SU-DHL-1 cells assessed as inhibition of cell growth incubated for 72 hrs by celltiter-glo assay; type: functional, cell-based; settings: SU-DHL-1, 72 h
M14 = test: Antiproliferative activity against human M14 cells assessed as inhibition of cell growth incubated for 72 hrs by celltiter-glo assay; type: functional, cell-based; settings: M14, 72 h
MeWo = test: Antiproliferative activity against human MeWo cells assessed as inhibition of cell growth incubated for 72 hrs by celltiter-glo assay; type: functional, cell-based
SK-MEL-5 = test: Antiproliferative activity against human SK-MEL-5 cells assessed as inhibition of cell growth incubated for 72 hrs by celltiter-glo assay; type: functional, cell-based; settings: SK-MEL-5, 72 h
NCI-H929 = test: Antiproliferative activity against human NCI-H929 cells assessed as inhibition of cell growth incubated for 72 hrs by celltiter-glo assay; type: functional, cell-based; settings: NCI-H929, 72 h
[7] = Antiproliferative activity against human GM03798 cells assessed as inhibition of cell growth incubated for 72 hrs by celltiter-glo assay; type: functional, cell-based; settings: GM03798, 72 h
[8] = Antiproliferative activity against human GM14788 cells assessed as inhibition of cell growth incubated for 72 hrs by celltiter-glo assay; type: functional, cell-based; settings: GM14788, 72 h
SK-OV-3 = test: Antiproliferative activity against human SK-OV-3 cells assessed as inhibition of cell growth incubated for 72 hrs by celltiter-glo assay; type: functional, cell-based; settings: SK-OV-3, 72 h
DU-145 = test: Antiproliferative activity against human DU-145 cells assessed as inhibition of cell growth incubated for 72 hrs by celltiter-glo assay; type: functional, cell-based; settings: DU-145, 72 h
LNCaP = test: Antiproliferative activity against human LNCaP cells assessed as inhibition of cell growth incubated for 72 hrs by celltiter-glo assay; type: functional, cell-based
CAKI-1 = test: Antiproliferative activity against human CAKI-1 cells assessed as inhibition of cell growth incubated for 72 hrs by celltiter-glo assay; type: functional, cell-based; settings: CAKI-1, 72 h
UO-31 = test: Antiproliferative activity against human UO-31 cells assessed as inhibition of cell growth incubated for 72 hrs by celltiter-glo assay; type: functional, cell-based; settings: UO-31, 72 h
RO82-W-1 = test: Antiproliferative activity against human RO82-W-1 cells assessed as inhibition of cell growth incubated for 72 hrs by celltiter-glo assay; type: functional, cell-based; settings: RO82-W-1, 72 h
[9] = biological target: Maternal embryonic leucine zipper kinase (Homo sapiens, UniProt Q14680); test: Inhibition of recombinant MELK (unknown origin) preincubated for 60 mins
Maternal embryonic leucine zipper kinase, sequence (Q14680 whole entry): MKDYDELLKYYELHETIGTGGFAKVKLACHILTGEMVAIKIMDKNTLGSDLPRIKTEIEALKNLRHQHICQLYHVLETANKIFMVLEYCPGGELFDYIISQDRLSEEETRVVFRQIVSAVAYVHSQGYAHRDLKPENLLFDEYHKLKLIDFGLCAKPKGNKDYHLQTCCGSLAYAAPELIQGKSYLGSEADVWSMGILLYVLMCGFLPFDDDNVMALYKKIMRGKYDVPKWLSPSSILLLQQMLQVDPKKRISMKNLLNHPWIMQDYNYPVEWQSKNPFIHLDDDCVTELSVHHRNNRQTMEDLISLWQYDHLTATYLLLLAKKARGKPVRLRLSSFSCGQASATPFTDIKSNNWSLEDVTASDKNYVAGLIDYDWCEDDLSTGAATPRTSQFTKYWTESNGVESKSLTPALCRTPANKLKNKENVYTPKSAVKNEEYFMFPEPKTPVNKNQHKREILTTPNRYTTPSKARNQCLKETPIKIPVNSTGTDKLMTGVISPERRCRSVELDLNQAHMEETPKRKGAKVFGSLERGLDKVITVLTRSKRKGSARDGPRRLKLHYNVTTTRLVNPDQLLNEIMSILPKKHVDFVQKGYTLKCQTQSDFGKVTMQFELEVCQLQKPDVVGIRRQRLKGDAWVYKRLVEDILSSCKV

HeLa = test: Inhibition of cdc20-BUB3 protein-protein interaction in human nocodazole arrested HeLa cells by Coimmunoprecipitation analysis; type: cell-based
HCT-116 [10] = test: Growth inhibition of human HCT-116 cells at 1 micromol/L incubated for 24 hrs; type: functional, cell-based; settings: dose 1.0 µmol/L
HCT-116 [11] = test: Cell cycle arrest in human HCT-116 cells assessed as accumulation of cells at G1 phase at 0.2 to 1 micromol/L incubated for 48 hrs by FACS/PI staining based flow cytometric analysis; type: functional; settings: dose 0.2-1 µmol/L
A2780 = test: Induction of apoptosis in human A2780 cells assessed as upregulation of histone H3 dephosphorylation at 0.2 to 1 micromol/L incubated for 2 to 72 hrs by Western blot analysis; type: functional, cell-based; settings: dose 0.2-1 µmol/L, time 2-72 hrs
U2OS = test: Cytotoxicity against human U2OS cells expressing YFP-alpha tubulin assessed as cell death incubated for 86 hrs; type: functional, cell-based
HCT-116 [12] = test: Induction of apoptosis in human HCT-116 cells at 1 micromol/L incubated for 24 to 72 hrs by FACS/PI staining based flow cytometric analysis; type: functional; settings: dose 1 µmol/L; time 24-72 hrs; at 1 µM
[13] = Cmax in Athymic nu-nu mouse at 10 mg/kg, po measured upto 24 hrs by LC-MS/MS analysis; type: ADME, organism-based; settings: in vivo
[14] = Half life in Athymic nu-nu mouse at 10 mg/kg, iv measured upto 24 hrs by LC-MS/MS analysis; type: ADME, organism-based; settings: in vivo

IC50 (Activated CDC42 kinase 1): > 10 µM
IC50 [1]: > 10 µM
IC50 [2]: > 10 µM
IC50 [3]: > 10 µM
IC50 [4]: > 10 µM
IC50 [5]: > 10 µM
IC50 [6]: > 10 µM
IC50 (MCF7): 1.86 µM
IC50 (COLO 205): 0.592 µM
IC50 (CCRF-CEM): 1.43 µM
IC50 (K562): 2.71 µM
IC50 (NCI-H1770): 4.42 µM
IC50 (NCI-H2228): 5.81 µM
IC50 (MV4-11): 1.14 µM
IC50 (SU-DHL-1): 3.31 µM
IC50 (SK-MEL-5): 4.49 µM
IC50 (NCI-H929): 10 µM
IC50 (SK-OV-3): 4.26 µM
IC50 (DU-145): 1.93 µM
IC50 (LNCaP): 3.07 µM
IC50 [9]: < 10 µM
Cmax [13]: 600 nM
half-life [14]: 7.65 h
Structure (SMILES): CCc1cccc(CC)c1NC(=O)c1nn(C)c2c1CCc1cnc(Nc3ccc(C(=O)NC4CCN(C)CC4)cc3OC(F)(F)F)nc1-2
IC50 (LS180): 2.17 µM
IC50 (SNB-19): 6.93 µM
IC50 (SET-2): 10 µM
IC50 (EKVX): 6.98 µM
IC50 (SUD4): 1.6 µM
IC50 (M14): 0.698 µM
IC50 (MeWo): 3.26 µM
IC50 [7]: 9.4 µM
IC50 [8]: 10 µM
IC50 (CAKI-1): 2 µM
IC50 (UO-31): 3.62 µM
IC50 (RO82-W-1): 9.31 µM
inhibition (HeLa): Active
growth inhibition (GI) (HCT-116 [10]): Active
Activity (HCT-116 [11]): Active
Activity (A2780): Active
Activity (U2OS): Active
Activity (HCT-116 [12]): 100%
